The values below come from US20240287080A1 (IDEAYA Biosciences Inc., priority 2021, published 2024).

SMILES strings stand for the structures. A value given as a limit tells only on which side of the number the result lay.

A word on the IC50: it is the concentration at which inhibition is half-maximal.

In one assay the target is T1, Pol theta (1-899) (Homo sapiens, UniProt O75417).
T1 construct: Pol theta (1-899) (5 nM) in assay buffer
T1 sequence (O75417 1-899): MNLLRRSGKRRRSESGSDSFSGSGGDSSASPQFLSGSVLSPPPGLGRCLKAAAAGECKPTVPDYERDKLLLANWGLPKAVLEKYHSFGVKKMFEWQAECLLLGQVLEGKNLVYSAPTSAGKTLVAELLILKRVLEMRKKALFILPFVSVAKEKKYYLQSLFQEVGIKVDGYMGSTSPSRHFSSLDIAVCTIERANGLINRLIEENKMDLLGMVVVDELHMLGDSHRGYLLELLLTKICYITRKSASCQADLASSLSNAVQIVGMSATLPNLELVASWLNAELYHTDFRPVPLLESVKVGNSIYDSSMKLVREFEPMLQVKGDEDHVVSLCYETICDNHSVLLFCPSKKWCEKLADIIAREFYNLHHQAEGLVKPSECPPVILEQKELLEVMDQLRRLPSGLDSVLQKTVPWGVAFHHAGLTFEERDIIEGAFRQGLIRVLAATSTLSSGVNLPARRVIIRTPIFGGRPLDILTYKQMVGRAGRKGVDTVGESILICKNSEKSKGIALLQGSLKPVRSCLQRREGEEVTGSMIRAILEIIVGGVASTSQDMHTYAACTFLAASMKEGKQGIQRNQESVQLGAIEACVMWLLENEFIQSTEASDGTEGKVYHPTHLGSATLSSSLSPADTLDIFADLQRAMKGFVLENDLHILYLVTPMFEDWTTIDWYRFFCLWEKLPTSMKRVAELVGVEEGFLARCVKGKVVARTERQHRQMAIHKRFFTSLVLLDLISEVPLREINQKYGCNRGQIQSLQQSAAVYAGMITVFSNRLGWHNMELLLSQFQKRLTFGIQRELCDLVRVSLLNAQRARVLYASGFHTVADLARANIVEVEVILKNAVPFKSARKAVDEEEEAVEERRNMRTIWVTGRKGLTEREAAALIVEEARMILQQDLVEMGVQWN
Kind of assay: Pol theta ATPase activity, NADH oxidation-coupled enzymatic assay (ATPase NADH coupling: Standard Screening: hPolQ). It counts as biochemical. The note with it: Pol theta (1-899) 5 nM, NADH oxidation-coupled ATPase assay; compounds of Table 3. In short, it runs like this: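 Rates of ATP hydrolysis taken from 60-min A340 traces of NADH oxidation via PK/LDH coupling, then fit four-parameter for IC50, Hill slope and max inhibition. Enzyme (5 nM, 1-899) and compounds preincubated 15 min before ATP 100 μM and 50-thymine ssDNA 300 nM (stock, equal volume added).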
For `COc1nnc(NC(=O)c2cnc(C)cc2-c2ccc3c(c2)COC3=O)s1` [Example 416, N-(5-methoxy-1,3,4-thiadiazol-2-yl)-6-methyl-4-(1-oxo-1,3-dihydro-2-benzofuran-5-yl)pyridine-3-carboxamide], the IC50 lay in the range of 1000 to 10000 nM.

`COc1nnc(NC(=O)c2cnc(C)cc2-c2cccc(CN(C)C)c2)s1` [Example 410, 4-(3-((dimethylamino)methyl)phenyl)-N-(5-methoxy-1,3,4-thiadiazol-2-yl)-6 methylnicotinamide] registered an IC50 of 1000 to 10000 nM.

`COc1nnc(NC(=O)c2cnc(C)cc2-c2ccc(S(=O)(=O)N(C)C)cc2)s1` [Example 382, 4-[4-(dimethylsulfamoyl)phenyl]-N-(5-methoxy-1,3,4-thiadiazol-2-yl)-6-methylpyridine-3-carboxamide] had an IC50 of 1000 to 10000 nM.

As for `COc1cnc(C)c(F)c1-c1cc(C)ncc1C(=O)Nc1nnc(O[C@@H]2C[C@@H]3C[C@H]2C[C@H]3O)s1` (single isomer, unassigned) [Example 254], the IC50 was at most 200 nM.

With `COc1nnc(NC(=O)c2cnc(C)cc2-c2cnc(C(F)(F)F)cc2C)s1` [Example 424, N-(5-methoxy-1,3,4-thiadiazol-2-yl)-4,6′-dimethyl-6-(trifluoromethyl)-[3,4′-bipyridine]-3′-carboxamide], the IC50 lay in the range of 1000 to 10000 nM.

Molecule `COc1cnc(C)c(F)c1-c1cc(C)ncc1C(=O)Nc1nnc(OC2([C@@H]3CCOC3)CC2)s1` (single isomer, unassigned) [Example 293] displayed an IC50 of at most 200 nM.

In the case of `CNC(=O)c1cncc(-c2cc(C)ncc2C(=O)Nc2nnc(OC)s2)c1` [Example 339, N3′-(5-methoxy-1,3,4-thiadiazol-2-yl)-N5,6′-dimethyl-[3,4′-bipyridine]-3′,5-dicarboxamide], the IC50 is 1000 to 10000 nM.

The molecule `COc1cnc(C)cc1-c1cc(C)ncc1C(=O)Nc1nnc(OC2COCC2NCC2CC2)s1` (centres unmarked) [Example 249, N-(5-((4-((cyclopropylmethyl)amino)tetrahydrofuran-3-yl)oxy)-1,3,4-thiadiazol-2-yl)-5′-methoxy-2′,6-dimethyl-[4,4′-bipyridine]-3-carboxamide] came in with an IC50 of at most 200 nM.

Take `COc1nnc(NC(=O)c2cnc(C)cc2-c2ccc(S(N)(=O)=O)cc2)s1` [Example 378, N-(5-methoxy-1,3,4-thiadiazol-2-yl)-6-methyl-4-(4-sulfamoylphenyl)pyridine-3-carboxamide]: the IC50 lay within 1000 to 10000 nM.

In turn, `COc1nnc(NC(=O)c2ccc(F)cc2-c2cc(Cl)ncc2OC)s1` [Example 266, 2-(2-chloro-5-methoxypyridin-4-yl)-4-fluoro-N-(5-methoxy-1,3,4-thiadiazol-2-yl)benzamide] yielded an IC50 of at most 200 nM.

The molecule `COc1nnc(NC(=O)c2cnc(C)cc2-c2ccc(C)cc2C)s1` [Example 386, 4-(2,4-dimethylphenyl)-N-(5-methoxy-1,3,4-thiadiazol-2-yl)-6-methylpyridine-3-carboxamide] registered an IC50 of 500 to 1000 nM.

Turning to `COc1cnc(Cl)cc1-c1cc(C)ncc1C(=O)Nc1nnc(O[C@@H]2C[C@@H]3C[C@H]2C[C@H]3O)s1` (single isomer, unassigned) [Example 263], the IC50 was at most 200 nM.

In turn, `CCc1cccc(-c2cc(C)ncc2C(=O)Nc2nnc(OC)s2)c1` [Example 383, 4-(3-ethylphenyl)-N-(5-methoxy-1,3,4-thiadiazol-2-yl)-6-methylpyridine-3-carboxamide] gave an IC50 of 500 to 1000 nM.

As for `COc1ccc(-c2cc(C)ncc2C(=O)Nc2nnc(OC)s2)c(F)c1` [Example 445, 4-(2-fluoro-4-methoxyphenyl)-N-(5-methoxy-1,3,4-thiadiazol-2-yl)-6-methylnicotinamide], the 50% inhibitory concentration (IC50) lay in the range of 1000 to 10000 nM.

Regarding `COc1nnc(NC(=O)c2cnc(C)cc2-c2cccc(CC#N)c2)s1` [Example 477, 4-[3-(cyanomethyl)phenyl]-N-(5-methoxy-1,3,4-thiadiazol-2-yl)-6-methylpyridine-3-carboxamide], the half-maximal inhibitory concentration (IC50) fell in the range of 1000 to 10000 nM.

With `COc1nnc(NC(=O)c2cnc(C)cc2-c2ccc3c(c2)CC(=O)N3)s1` [Example 347, N-(5-methoxy-1,3,4-thiadiazol-2-yl)-6-methyl-4-(2-oxo-2,3-dihydro-1H-indol-5-yl)pyridine-3-carboxamide], the IC50 is 1000 to 10000 nM.

As for `COc1nnc(NC(=O)c2cnc(C)cc2-c2cc(Cl)c([S@+]([O-])C3CC3)cc2OC)s1` (single isomer, unassigned) [Example 321], the IC50 is 1000 to 10000 nM.

Consider `COc1ccc(F)c(-c2cc(C)ncc2C(=O)Nc2nnc(OC)s2)c1` [Example 447, 4-(2-fluoro-5-methoxyphenyl)-N-(5-methoxy-1,3,4-thiadiazol-2-yl)-6-methylpyridine-3-carboxamide], for which the IC50 is 500 to 1000 nM.

Take `COc1nnc(NC(=O)c2cnc(C)cc2-c2ccc(OC)c(F)c2)s1` [Example 419, 4-(3-fluoro-4-methoxyphenyl)-N-(5-methoxy-1,3,4-thiadiazol-2-yl)-6-methylpyridine-3-carboxamide]: the IC50 was 1000 to 10000 nM.

`COc1nnc(NC(=O)c2cc(OC(F)F)ncc2-c2cc(Cl)ncc2OC)s1` [Example 265, 2′-chloro-6-(difluoromethoxy)-5′-methoxy-N-(5-methoxy-1,3,4-thiadiazol-2-yl)-[3,4′-bipyridine]-4-carboxamide] registered an IC50 of at most 200 nM.

As to `COc1cnc(C)c(F)c1-c1cc(C)ncc1C(=O)Nc1nnc(O[C@@H]2CCC[C@H](O)C2)s1` (single isomer, unassigned) [Example 255], the IC50 was at most 200 nM.

Still in this assay, the particulars now being: Table 4; Pol theta (1-899) 5 nM, ATP, dT50 ssDNA.
In the case of `CCOc1ccc(Cl)cc1-c1cc(C)ncc1C(=O)Nc1nnc(OC)s1` [Example 53, 4-(5-chloro-2-ethoxyphenyl)-N-(5-methoxy-1,3,4-thiadiazol-2-yl)-6-methylnicotinamide], the IC50 lay within 200 to 500 nM.

As for `Cc1cc(-c2cc(Cl)ncc2OC(F)F)c(C(=O)Nc2nnc(OC3COC3)s2)cn1` [Example 62, 2′-chloro-5′-(difluoromethoxy)-6-methyl-N-(5-(oxetan-3-yloxy)-1,3,4-thiadiazol-2-yl)-(4,4′-bipyridine)-3-carboxamide], the half-inhibitory concentration (IC50) is at most 200 nM.

For the molecule `COc1nnc(NC(=O)c2cnc(C)cc2-c2cc3[nH]cnc3cc2OC)s1` [Example 71, N-(5-methoxy-1,3,4-thiadiazol-2-yl)-4-(5-methoxy-1H-benzo(d)imidazol-6-yl)-6-methylnicotinamide], the IC50 lay in the range of 1000 to 10000 nM.

The same assay, now with this note: Table 5; Pol theta (1-899) 5 nM, ATP, dT50 ssDNA.
Consider `COc1cnc(Cl)cc1-c1cc(C)ncc1C(=O)Nc1nnc(O[C@H]2CC[C@@H](C(C)(C)O)CC2)s1` [Example 175, 2′-chloro-N-(5-(((1s,4s)-4-(2-hydroxypropan-2-yl)cyclohexyl)oxy)-1,3,4-thiadiazol-2-yl)-5′-methoxy-6-methyl-(4,4′-bipyridine)-3-carboxamide], for which the IC50 was at most 200 nM.

`COCc1cc(-c2cc(Cl)ncc2OC)c(C(=O)Nc2nnc(O[C@@H]3CCOC3)s2)cn1` [Example 142, (R)-2′-chloro-5′-methoxy-6-(methoxymethyl)-N-(5-((tetrahydrofuran-3-yl)oxy)-1,3,4-thiadiazol-2-yl)-(4,4′-bipyridine)-3-carboxamide] came in with an IC50 of at most 200 nM.

For the molecule `COc1cnc(Cl)cc1-c1cc(C)ncc1C(=O)Nc1nnc(O[C@H]2CCO[C@H]2C)s1` (racemic) [Example 92, rac-2′-Chloro-5′-methoxy-6-methyl-N-(5-(((2R,3R)-2-methyltetrahydrofuran-3-yl)oxy)-1,3,4-thiadiazol-2-yl)-(4,4′-bipyridine)-3-carboxamide], the IC50 lay in the range of 200 to 500 nM.

For `COc1cnc(Cl)c(F)c1-c1cc(C)ncc1C(=O)Nc1nnc(O[C@@H]2COC3(CC3)C2)s1` (single isomer, unassigned) [Example 209], the IC50 is at most 200 nM.

`COc1nnc(NC(=O)c2cnc(C)cc2-c2c(OC)cnc(Cl)c2C)s1` [Example 79, 2′-chloro-5′-methoxy-N-(5-methoxy-1,3,4-thiadiazol-2-yl)-3′,6-dimethyl-(4,4′-bipyridine)-3-carboxamide] gave an IC50 of 200 to 500 nM.

`COc1cnc(Cl)cc1-c1cc(C)ncc1C(=O)Nc1nnc(O[C@H]2CC[C@@](C)(O)CC2)s1` (single isomer, unassigned) [Example 141, 2′-chloro-N-(5-(((1s,4s)-4-hydroxy-4-methylcyclohexyl)oxy)-1,3,4-thiadiazol-2-yl)-5′-methoxy-6-methyl-(4,4′-bipyridine)-3-carboxamide] showed an IC50 of at most 200 nM.

On to `COc1cnc(Cl)cc1-c1cc(C)ncc1C(=O)Nc1nnc(O[C@@H]2COC3(CC3)C2)s1` (single isomer, unassigned) [Example 228], for which the IC50 is at most 200 nM.

The molecule `COc1cnc(Cl)c(F)c1-c1cc(C)ncc1C(=O)Nc1nnc(O[C@H]2C[C@@H](O)C2)s1` [Example 129, 2′-chloro-3′-fluoro-N-(5-((1s,3s)-3-hydroxycyclobutoxy)-1,3,4-thiadiazol-2-yl)-5′-methoxy-6-methyl-(4,4′-bipyridine)-3-carboxamide] showed an IC50 of at most 200 nM.

Consider `COc1cnc(Cl)c(F)c1-c1cc(C)ncc1C(=O)Nc1nnc(O[C@@H]2CCC[C@H](O)C2)s1` (single isomer, unassigned) [Example 155], for which the IC50 is at most 200 nM.

The same assay, now with this note: Table 5; values given as bound; Pol theta (1-899) 5 nM, ATP, dT50 ssDNA.
For `COc1nnc(NC(=O)c2cn(C)nc2-c2cc(Cl)ncc2OC)s1` [Example 110, 3-(2-chloro-5-methoxypyridin-4-yl)-N-(5-methoxy-1,3,4-thiadiazol-2-yl)-1-methyl-1H-pyrazole-4-carboxamide], the IC50 is over 10000 nM.

`COc1nnc(NC(=O)c2cnc(C)cc2-c2cccn3ncnc23)s1` [Example 123, 4-((1,2,4)triazolo(1,5-a)pyridin-8-yl)-N-(5-methoxy-1,3,4-thiadiazol-2-yl)-6-methylnicotinamide] yielded an IC50 of over 10000 nM.
